Patent US9687488B2, “Compositions and methods for increasing neurotrophic peptides” (Saint Louis College of Pharmacy, priority 2012, dated 2017)

What was measured:
[1] = test system: primary cortical neurons; assay: MTS cell viability assay; type: cell-based, murine; conditions: 24 hours
Method: (§1) Murein E14-E15 cortices were dissected and removed to Hanks Balanced Salt Solution (HBSS) The tissue was dissociated with 0.05% trypsin in HBSS for 10 min at 37° C., and then filtered through a 70 µm cell strainer. Cells were plated on poly-D-lysine (PDL)-coated plates at −3.2×10^5 cells/cm^2 in CEMEM (10% fetal bovine serum, 10% horse serum, 2 mM L-glutamine, and 1% penicillin/streptomycin) for 45 min in a 37° C. humidified tri-gas incubator (5% CO2 and 5% 02). The medium was changed to Neurobasal medium (Invitrogen, Carlsbad, Calif.) with a B27 supplement (Gibco) containing antioxidants (NB plus AO) to specifically enhance neuronal growth. After 3 days the media were half changed with NB plus AO. All treatments were done at day 5 with complete media change containing vehicle, SAHA (suberoyl anilide hydroxamic acid; Vorinostat), and test compounds at final concentrations ranging from 125 μM to 1 nM for 24 hours. The MTS non-radioactive cell viability assay employed [3-(4,5-dimethylthiazol-2-yl)-5-(3-carboxymethoxyphenyl)-2-(4-sulfophenyl)-2H-tetrazolium, inner salt with phenazine methosulfate added as an electron coupling reagent, MTS is bioreduced by cells into a formazan product that is soluble in tissue culture medium and can be measured at 490 nm. MTS was performed at 24 hours per manufacturer recommendations (Promega, G5421).

[2] = test system: progranulin levels in cortical neuron cultures; assay: Dot blot / immunoblotting of progranulin in primary cortical neuron cultures; type: cell-based, Murine; conditions: primary cortical neurons, 24 hours; for accumulation of progranulin: dot blot (FIG. 5), repeat triplicate experiments
Method: as §1, with “hours.” for “hours. The MTS non-radioactive cell viability assay employed [3-(4,5-dimethylthiazol-2-yl)-5-(3-carboxymethoxyphenyl)-2-(4-sulfophenyl)-2H-tetrazolium, inner salt with phenazine methosulfate added as an electron coupling reagent, MTS is bioreduced by cells into a formazan product that is soluble in tissue culture medium and can be measured at 490 nm. MTS was performed at 24 hours per manufacturer recommendations (Promega, G5421).”
Culture medium was collected and cells were lysed in lysis buffer containing 50 mM Tris-HCl, pH 7.5, 150 mM sodium chloride, 1% Nonidet P-40, 0.5% sodium deoxycholate, 1 mM sodium orthovanadate, 5 mM sodium fluoride, and a protease inhibitor cocktail. Sample concentrations were determined to ensure equal loading, placed in Laemmli sample buffer containing B-mercaptoethanol, and denatured at 100° C. for 5 min. Proteins were separated on a 4% stacking and 12% resolving SDS-PAGE Tris-glycine gel, transferred to polyvinylidene difluoride membrane (Millipore), and blocked in 5% instant milk or 5% bovine serum albumin in Tris-buffered saline with 0.1% Tween for 1 hour. For immunoblotting, primary antibodies were incubated overnight at 4° C. with 1/1000 tubulin (Developmental Studies Hybridoma), and 1/1000 Progranulin (ProteinTech Group). 15 μL of media was loaded from each sample. Ponceau red staining on the membrane before immunological probing was used to show equal loading to look for secreted progranulin and survival of motor neurons protein.

[3] = test system: survival motor neuron (SMN) protein in cortical neurons; assay: Immunoblotting of SMN protein in cortical neuron cultures; type: cell-based, murine; conditions: immunoblot against tubulin (FIG. 6)
Method: as §1, with “hours.” for “hours. The MTS non-radioactive cell viability assay employed [3-(4,5-dimethylthiazol-2-yl)-5-(3-carboxymethoxyphenyl)-2-(4-sulfophenyl)-2H-tetrazolium, inner salt with phenazine methosulfate added as an electron coupling reagent, MTS is bioreduced by cells into a formazan product that is soluble in tissue culture medium and can be measured at 490 nm. MTS was performed at 24 hours per manufacturer recommendations (Promega, G5421).”
Culture medium was collected and cells were lysed in lysis buffer containing 50 mM Tris-HCl, pH 7.5, 150 mM sodium chloride, 1% Nonidet P-40, 0.5% sodium deoxycholate, 1 mM sodium orthovanadate, 5 mM sodium fluoride, and a protease inhibitor cocktail. Sample concentrations were determined to ensure equal loading, placed in Laemmli sample buffer containing B-mercaptoethanol, and denatured at 100° C. for 5 min. […]

SMILES	toxicity to the neurons [1]	effective dose for progranulin accumulation [2]	accumulation of progranulin [2]	cellular concentration of survival motor neuron (SMN) protein [3]
COc1ccc(-c2c(C)nn3c(=O)cc(Cc4ccccc4)[nH]c23)cc1OC [Compound 1, 5-benzyl-3-(3,4-dimethoxyphenyl)-2-methyl-4H,7H-pyrazolo[1,5,a]pyrimidin-7-one]	apparently nontoxic	effective in extremely low doses	elicited accumulation of progranulin	–
CC(=O)N(c1ccc(Oc2ccccc2)cc1)C1C=CS(=O)(=O)C1 (centres unmarked) [Compound 2, N-(1,1-dioxo-2,3-dihydro-1-[…]^6-thiophene-3-yl)-N-(4-phenoxyphenyl)acetamide]	–	–	–	dramatically increase
COc1ccc(Cl)cc1NC(=O)CS(=O)(=O)c1ccccc1 [Compound 3, 2-(benzenesulfonyl)-N-(5-chloro-2-methoxyphenyl)acetamide]	apparently nontoxic	effective in extremely low doses	elicited accumulation of progranulin	–
CCN(CC(=O)Nc1ccccc1C)S(=O)(=O)c1ccc(OC)cc1 [Compound 4, 2-(N-ethyl-4-methoxybenzenesulfonamido)-N-(2-methylphenyl) acetamide]	–	–	–	dramatically increase
